Laboratory results taken from patent US11492348B2, “Tri-substituted aryl and heteroaryl derivatives as modulators of PI3-kinase and autophagy pathways” (Neuropore Therapies, Inc., priority 2018, dated 2022).

How the values were obtained:
mTor kinase = mTor kinase (Homo sapiens (Human), UniProt P42345); assay: mTor assay (33P-ATP filter-binding kinase assay); format: biochemical; conditions: 2 hours at room temperature
Procedure: The substrate was prepared in base reaction buffer (20 mM Hepes (pH 7.5), 10 mM MgCl2, 1 mM EGTA, 0.02% Brij35, 0.02 mg/ml BSA, 0.1 mM Na3VO4, 2 mM DTT, 1% DMSO), and required cofactors were added to the substrate solution. The mTor kinase was delivered into the substrate solution, and the solution was gently mixed. Testing compounds were dissolved in 100% DMSO to specific concentration. The serial dilution was conducted by Integra Viaflo Assist in DMSO. The compounds were delivered into the kinase reaction mixture by Acoustic technology (Echo550; nanoliter range), and the reaction mixture was incubated for 20 min at room temperature. Then, 33P-ATP (Specific activity 10 μCi/μl) was delivered into the reaction mixture to initiate the reaction. The reaction mixture was incubated for 2 hours at room temperature. Radioactivity was detected by a filter-binding method. Kinase activity data were expressed as the percent remaining kinase activity in test samples compared to vehicle (dimethyl sulfoxide) reactions. IC50 values and curve fits were obtained using Prism (GraphPad Software).

PI3Kα = PI3Kα (Homo sapiens (Human), UniProt P42336); assay: Inhibition of PI3Kα (ADP-Glo kinase activity assay, ATP to ADP conversion); format: biochemical; conditions: 25 μM PIP2:PS, 60 μM ATP, 30 min reaction, luminescence
Summary of the method: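 Recombinant active PI3Kα (1.1 nM) in HEPES pH 7.5 buffer with 6 mM MgCl2 and 8 mM DTT was preincubated with compound for 0 or 3 h. The reaction ran for 30 min with 25 µM PIP2:PS and 60 µM ATP, and ADP formation was read by ADP-Glo luminescence. IC50 came from a 12-point, 1:3 series fitted with a 4-parameter model, bottom fixed to reference inhibitor controls and top floating.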

[1] = test system: (Ser-473) pAKT in B103 (Rat Neuroblastoma) cells; assay: pAKT protocol: loss of (Ser-473) pAKT by AlphaScreen in insulin-stimulated B103 cells; format: cell-based; conditions: (Ser-473) pAKT/total AKT IC50, 2-hour pretreatment, 2.5 μg/mL insulin 20 minutes
Procedure: Inhibition of the PI3K-AKT-mTOR pathway was measured by quantifying the loss of (Ser-473) pAKT using AlphaScreen (Perkin Elmer). B103 (Rat Neuroblastoma) cells were seeded in serum containing medium (High Glucose DMEM (-Phenol Red)+10% FBS+2× Glutamax+1 mM Sodium Pyruvate+10 mM HEPES+1× Non-Essential Amino Acids+1× Pen/Strep) on a 96-well tissue culture treated plate and grown for 20 hours. Cells were then serum starved in serum free medium (High Glucose DMEM (-Phenol Red)+1× Glutamax+1 mM Sodium Pyruvate+1× Pen/Strep) for 6 hours prior to a 2-hour pretreatment with inhibitors of the pathway, including reference inhibitor LY294002. These inhibitors were prepared at a 200× final concentration as a 6-point, 1:3 serial dilution in DMSO series, with DMSO as the 7th point. The inhibitors were then diluted in experimental medium (High Glucose DMEM (-Phenol Red)+1× Glutamax+1 mM Sodium Pyruvate+1× Pen/Strep+25 mM HEPES+0.1% BSA) and combined with the cells at 1× final concentration in 0.5% DMSO. […] Cells were promptly lysed using Perkin Elmer proprietary lysis buffer and the (Ser-473) pAKT and total AKT contained in the lysate was measured by AlphaScreen. In AlphaScreen, donor beads were coated with streptavidin to capture one of the antibodies, which is biotinylated. Acceptor beads were coated with Protein A to immobilize the other antibody. In the presence of target protein, the two antibodies bring the donor and acceptor beads close together, generating signal. The amount of light emission is directly proportional to the amount of target protein present in the sample. For each inhibitor tested: the ratio of measured (Ser-473) pAKT/totalAKT was plotted in GraphPad Prism as a 7-point, non-linear regression, 4-parameter curve with bottom constrained to reference control bottom and unconstrained top anchored to DMSO.

Sequence of PI3Kα (P42336 whole entry): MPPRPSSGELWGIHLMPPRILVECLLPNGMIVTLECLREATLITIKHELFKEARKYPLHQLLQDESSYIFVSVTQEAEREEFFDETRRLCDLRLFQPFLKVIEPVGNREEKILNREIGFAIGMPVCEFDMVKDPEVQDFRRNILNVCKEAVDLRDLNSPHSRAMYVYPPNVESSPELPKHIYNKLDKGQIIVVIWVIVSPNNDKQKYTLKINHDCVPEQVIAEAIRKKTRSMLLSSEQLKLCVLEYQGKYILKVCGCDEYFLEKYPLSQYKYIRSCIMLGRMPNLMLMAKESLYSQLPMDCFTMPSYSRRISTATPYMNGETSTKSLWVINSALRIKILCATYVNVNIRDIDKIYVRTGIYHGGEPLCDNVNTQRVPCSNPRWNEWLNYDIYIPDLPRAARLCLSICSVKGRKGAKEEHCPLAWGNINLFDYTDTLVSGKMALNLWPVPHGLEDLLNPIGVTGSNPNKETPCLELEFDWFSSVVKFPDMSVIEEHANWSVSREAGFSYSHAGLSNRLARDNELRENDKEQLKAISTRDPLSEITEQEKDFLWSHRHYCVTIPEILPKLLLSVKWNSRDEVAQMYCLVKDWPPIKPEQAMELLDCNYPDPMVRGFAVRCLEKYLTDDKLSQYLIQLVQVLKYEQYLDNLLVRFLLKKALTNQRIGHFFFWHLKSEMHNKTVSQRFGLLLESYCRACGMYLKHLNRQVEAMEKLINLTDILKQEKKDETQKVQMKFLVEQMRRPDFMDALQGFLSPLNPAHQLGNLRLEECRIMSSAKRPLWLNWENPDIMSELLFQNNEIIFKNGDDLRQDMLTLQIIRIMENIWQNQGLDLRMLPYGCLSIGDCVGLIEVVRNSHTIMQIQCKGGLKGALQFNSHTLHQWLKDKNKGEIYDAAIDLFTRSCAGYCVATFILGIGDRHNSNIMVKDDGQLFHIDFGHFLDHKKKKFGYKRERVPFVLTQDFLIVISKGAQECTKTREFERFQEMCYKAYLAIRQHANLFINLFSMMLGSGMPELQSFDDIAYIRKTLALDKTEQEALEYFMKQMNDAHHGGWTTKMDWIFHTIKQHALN
Sequence of PI3Kα (P27986 whole entry partner): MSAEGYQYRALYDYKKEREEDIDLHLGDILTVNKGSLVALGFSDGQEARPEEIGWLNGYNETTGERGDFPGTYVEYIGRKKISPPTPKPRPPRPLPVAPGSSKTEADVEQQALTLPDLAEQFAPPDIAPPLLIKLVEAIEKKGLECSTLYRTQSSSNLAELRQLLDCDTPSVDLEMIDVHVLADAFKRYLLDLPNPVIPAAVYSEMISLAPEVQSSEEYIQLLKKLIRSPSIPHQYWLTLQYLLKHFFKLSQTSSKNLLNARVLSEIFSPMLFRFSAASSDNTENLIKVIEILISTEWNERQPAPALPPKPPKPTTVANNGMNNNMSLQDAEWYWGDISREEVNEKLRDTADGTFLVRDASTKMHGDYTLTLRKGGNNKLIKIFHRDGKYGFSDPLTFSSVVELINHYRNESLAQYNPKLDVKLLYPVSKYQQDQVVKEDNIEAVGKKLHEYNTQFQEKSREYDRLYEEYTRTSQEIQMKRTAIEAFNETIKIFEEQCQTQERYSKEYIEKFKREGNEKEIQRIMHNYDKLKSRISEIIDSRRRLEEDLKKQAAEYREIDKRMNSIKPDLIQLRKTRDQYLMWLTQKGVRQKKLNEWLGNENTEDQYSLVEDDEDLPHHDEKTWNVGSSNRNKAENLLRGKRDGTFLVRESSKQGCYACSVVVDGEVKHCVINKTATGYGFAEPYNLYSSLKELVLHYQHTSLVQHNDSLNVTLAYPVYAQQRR

| Structure (SMILES) | IC50 (mTor kinase) [µM] | PI3Ka IC50 (PI3Kα) [µM] | IC50 [1] [µM] | IC50 (PI3Kα; read-out: PI3Ka IC50) [µM] |
| --- | --- | --- | --- | --- |
| Nc1ncc(-c2cc(N3CCOCC3)cc(S(=O)(=O)CC3CCOCC3)c2)cn1 [Compound 39, 5-(3-morpholino-5-(((tetrahydro-2H-pyran-4-yl)methyl)sulfonyl)phenyl)pyrimidin-2-amine] | 4.8 | 0.79 | 9.9 |  |
| COc1ccc(CS(=O)(=O)c2cc(-c3cnc(N)nc3)cc(N3CCOCC3)c2)cc1 [Compound 28, 5-(3-((4-methoxybenzyl)sulfonyl)-5-morpholinophenyl)pyrimidin-2-amine] | 7.9 |  | 13 | 0.37 |
| Nc1cc(F)c(-c2cc(N3CCOCC3)cc(S(=O)(=O)[C@@H]3CCOC3)c2)cn1 [Compound 106, (R)-4-fluoro-5-(3-morpholino-5-((tetrahydrofuran-3-yl)sulfonyl)phenyl)pyridin-2-amine] | 1.46 | 0.10 | 4.1 |  |
| Nc1ncc(-c2cc(N3CCOCC3)cc(S(=O)(=O)c3ccc(F)cc3)c2)cn1 [Compound 8, 5-(3-((4-fluorophenyl)sulfonyl)-5-morpholinophenyl)pyrimidin-2-amine] | 0.83 | 1.3 | 7.62 |  |
| Nc1ncc(-c2cc(Oc3ccccc3Cl)cc(N3CCOCC3)n2)cn1 [Compound 134, 5-(4-(2-chlorophenoxy)-6-morpholinopyridin-2-yl)pyrimidin-2-amine] | 0.45 | 0.07 | 0.38 |  |
| Nc1ncc(-c2cc(N3CCOCC3)cc(S(=O)(=O)C3CCOC3)c2)cn1 (stereo not drawn) [Compound 51, 5-(3-morpholino-5-((tetrahydrofuran-3-yl)sulfonyl)phenyl)pyrimidin-2-amine] | 0.46 | 0.12 | 2.12 |  |
| O=S(=O)(Cc1ccccc1)c1cc(-c2cnc(NCCO)nc2)cc(N2CCOCC2)c1 [Compound 35, 2-((5-(3-(benzylsulfonyl)-5-morpholinophenyl)pyrimidin-2-yl)amino)ethan-1-ol] | 12.2 | 1.1 | 23.5 |  |

The remaining molecules from weak to strong by IC50 (mTor kinase), led by results:

| IC50 (mTor kinase) [µM] | PI3Ka IC50 (PI3Kα) [µM] | IC50 [1] [µM] | IC50 (PI3Kα; read-out: PI3Ka IC50) [µM] | Structure (SMILES) |
| --- | --- | --- | --- | --- |
| 22 | 3.5 | 100 |  | Nc1ncc(-c2cc(N3CCOCC3)cc(S(=O)(=O)c3ccc(OC(F)(F)F)cc3)c2)cn1 [Compound 15, 5-(3-morpholino-5-((4-(trifluoromethoxy)phenyl)sulfonyl)phenyl) pyrimidin-2-amine] |
| 2.98 | 0.28 | > 50 |  | Nc1ncc(-c2cc(N3CCOCC3)cc(S(=O)(=O)Cc3ccccc3F)c2)cn1 [Compound 50, 5-(3-((2-fluorobenzyl)sulfonyl)-5-morpholinophenyl)pyrimidin-2-amine] |
| 2.95 | 0.034 | 3.46 |  | Nc1ncc(-c2cc(OC3CN(C(=O)C4CC4)C3)cc(N3CCOCC3)n2)cn1 [Compound 129, (3-((2-(2-aminopyrimidin-5-yl)-6-morpholinopyridin-4-yl)oxy)azetidin-1-yl)(cyclopropyl)methanone] |
| 2.58 | 0.18 | 7.33 |  | CC(=O)N1CCC(S(=O)(=O)c2cc(-c3cnc(N)nc3)cc(N3CCOCC3)c2)C1 (stereo not drawn) [Compound 91, 1-(3-((3-(2-aminopyrimidin-5-yl)-5-morpholinophenyl)sulfonyl)pyrrolidin-1-yl)ethan-1-one] |
| 2.06 | 0.37 | 1.51 |  | Nc1ncc(-c2cc(Oc3ccccc3OC(F)(F)F)cc(N3CCOCC3)n2)cn1 [Compound 136, 5-(6-morpholino-4-(2-(trifluoromethoxy)phenoxy)pyridin-2-yl)pyrimidin-2-amine] |
| 0.51 | 0.037 | 0.48 |  | Nc1ncc(-c2cc(C(=O)c3ccccc3)cc(N3CCOCC3)n2)cn1 [Compound 122, (2-(2-aminopyrimidin-5-yl)-6-morpholinopyridin-4-yl)(phenyl)methanone] |
